The record followed here is patent publication US20240207380A1, “NOVEL PEPTIDE TARGETING DENDRITIC CELLS, AND COMPOSITION FOR TREATING CANCER COMPRISING SAME” (INDUSTRY FOUNDATION OF CHONNAM NATIONAL UNIVERSITY, priority 2021, published 2024).

Entries after “also recorded” stand apart in the source; their conditions may differ. Ends that are not written are not given here. * marks the point of attachment. Biotin = O=C1N[C@H]2[C@H](CS[C@H]2CCCCC(=O)*)N1

In one experiment the test system is CD11c^+-BMDC. As to the kind of experiment: Cellular uptake of DC-targeting peptides by bone marrow-derived dendritic cells (FACS). Format: cell-based, C57BL/6 mice. As to conditions: biotinylated peptides, 2 hours in RPMI 1640, FACS gated on CD11c+, compared with negative control. As to the method: (§1) Bone marrow (BM) cells were isolated by flushing femurs and tibias of C57BL/6 mice, and red blood cells (RBCs) were depleted by ACK lysis (Gibco, A10492-01). The cells were centrifuged and strained through a 70 μm filter before being resuspended in RPMI 1640 supplemented with 10% heat-inactivated FBS, 100 units/ml penicillin, and 100 μg/ml streptomycin. The cells were resuspended in complete RPMI 1640 culture medium containing GM-CSF (10 ng/ml; R&D Systems, 415-ML-010) and IL4 (10 ng/ml; R&D Systems, 415-ML-010), inoculated into a cell culture dish, and cultured at 37° C. and 5% CO2. The culture medium was refreshed every two days. On day 7 or 8, DCs loosely bound to the bottom were collected by gentle pipetting. Splenic DCs were prepared by CD11c+ MicroBeads MACS (Miltenyi Biotec, 130-052-001) following the manufacturer's instructions.
(§2) Peptides were synthesized using […] chemistry, purified using high-pressure liquid chromatography to more than 95% purity, and biotinylated in the side chain (AnyGen Inc., South Korea). Peptides were dissolved in appropriate solvents according to the manufacturer's instructions to a concentration of 0.5 mg/ml. To test CD11c^+ cell targeting by the synthesized peptides, cLNs, splenic DCs, and BMDCs were treated with the 6 peptides for 2 hours in RPMI 1640 medium. After incubation with peptides, the cells were harvested, washed and stained with anti-mouse CD11c^+ APC-conjugated Ab (eBioscience, Clone: N418, 170114-82) and streptavidin-AF488. Cells were FACS analyzed by gating upon the CD11c^+ cell population, and the results are depicted in FIGS. 6 and 7.

In experiment [1] the test system is cervical lymph node cells, splenic dendritic cells, and bone marrow-derived dendritic cell. As to the kind of experiment: Cellular uptake of DC-targeting peptides in lymph node cells, splenic DCs and BMDCs (FACS). Format: cell-based, mice. Conditions: biotinylated peptides, 2 hours, FACS gated on CD11c+. The procedure:
as §1, §2

Experiment [2] has as its system CD11c^+ cells from cervical lymph nodes. Nature of the experiment: In vivo dendritic cell targeting after intranasal administration. Also on record: species or system BALB/c mice. Conditions: 6.5 hours post-inoculation, compared to scrambled-peptide negative control. The procedure:
The peptide at appropriate concentrations in a total volume of 10 μl/nostril was given intranasally to BALB/c mice. A scrambled peptide previously shown to be nonspecific to DCs was used as a negative control. At 6.5 hours post-inoculation, mice were sacrificed, and their cLNs were harvested. Single-cell suspensions were prepared by gently tearing the LN capsule. After gentle washing in 1×PBS, cells were stained with anti-mouse CD11c^+ APC-conjugated Ab (eBioscience, Clone: N418, 170114-82) and streptavidin-AF488, and FACS analysis was performed.

The test system of a further experiment is TC-1 cells. As to the kind of experiment: Efficacy of E7ΔNLS as tumor antigen in TC-1 tumor-bearing mice. Format: in vivo, C57BL/6 mice. As to conditions: peritumoral injection three times at intervals of five days; 4 μg FlaB, 10 μg E7FL, 8 μg E7ΔNLS alone or combined. As to the method: Female SPF C57BL/6 mice 7 to 8 weeks old were purchased from ORIENT (Seongnam-si, Gyeonggi-do, Korea). TC-1 cells were cultured in RPMI 1640 medium supplemented with 10% heat-inactivated FIBS, 100 units/ml penicillin, and 100 μg/ml streptomycin at 37° C. under 5% CO2. Tumors were established in mice by subcutaneous injection of 5×10^4 TC-1 cells in 100 μl of PBS into the right mid-flank of each mouse. […] Tumor growth was monitored every three days. The tumor volume was calculated with formula V=(tumor length)×(tumor width)×(tumor height)/2.

For a further experiment, the target named is T1, TLR5 (Homo sapiens, UniProt O60602).
T1 construct: host or cells: HEK-Blue hTLR5 cells (HEK293-derived reporter line, own knowledge: stably transfected with the human TLR5 gene and an NF-kB-inducible SEAP reporter)
T1 sequence (O60602 21-858): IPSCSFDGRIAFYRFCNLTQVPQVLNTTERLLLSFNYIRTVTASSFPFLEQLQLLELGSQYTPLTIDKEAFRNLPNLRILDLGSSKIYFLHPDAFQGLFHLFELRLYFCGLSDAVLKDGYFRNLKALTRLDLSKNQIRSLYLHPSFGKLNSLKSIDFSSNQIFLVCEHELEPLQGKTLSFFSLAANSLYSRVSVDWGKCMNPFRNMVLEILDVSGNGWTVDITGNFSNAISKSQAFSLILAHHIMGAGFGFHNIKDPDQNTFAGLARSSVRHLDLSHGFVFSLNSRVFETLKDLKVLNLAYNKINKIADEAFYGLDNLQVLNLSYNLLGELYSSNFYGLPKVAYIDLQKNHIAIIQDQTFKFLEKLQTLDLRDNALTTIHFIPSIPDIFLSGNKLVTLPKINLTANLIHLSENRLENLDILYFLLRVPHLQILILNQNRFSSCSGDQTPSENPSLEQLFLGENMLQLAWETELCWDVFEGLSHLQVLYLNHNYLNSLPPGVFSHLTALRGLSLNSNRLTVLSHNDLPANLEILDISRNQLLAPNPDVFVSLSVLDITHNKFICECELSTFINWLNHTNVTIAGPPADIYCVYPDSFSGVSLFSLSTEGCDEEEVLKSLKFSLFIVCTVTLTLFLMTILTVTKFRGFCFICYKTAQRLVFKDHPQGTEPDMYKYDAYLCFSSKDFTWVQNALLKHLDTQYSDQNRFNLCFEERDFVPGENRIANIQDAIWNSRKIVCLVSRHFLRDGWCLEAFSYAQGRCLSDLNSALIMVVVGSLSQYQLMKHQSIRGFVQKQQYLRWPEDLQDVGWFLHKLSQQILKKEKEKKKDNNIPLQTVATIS
Format: cell-based. As to conditions: HEK-Blue hTLR5 cells. The procedure:
Also, the EC50 was calculated using triplicate OD 620 nm values for each protein concentration over a wide range of protein concentrations (0.0375 nM-19.29 nM at the AAT Bioquest website).

Experiment [3] relates to Bone marrow-derived dendritic cells (BMDCs). As to the kind of experiment: Cellular uptake of EF and DEF in BMDCs (flow cytometry). Format: cell-based, C57BL/6 mice. Conditions: 2 hours, anti-FlaB staining, FACS gated on CD11c+. As to the method:
Cells treated with PBS alone were used as a negative control. After incubation, the cells were washed twice with cold 1×PBS containing 3% FBS and then stained with anti-mouse CD11c^+ antibody (eBioscience, Clone: N418, 25-0114-82) for 1 hour at 4° C. and fixed with 4% paraformaldehyde (T&I, BPP-9004) for 10 minutes at room temperature. The cells were permeabilized using a permeabilization kit according to the manufacturer's instructions (Invitrogen, 00-8333-56) and stained with anti-FlaB antibodies, followed by FACS analysis by gating upon the CD11c^+ population. The results are depicted in FIG. 14.
A general note: Flow cytometry measures light scatter and fluorescence of single cells or particles in a stream.

For experiment [4] the test system is unchanged. Nature of the experiment: Antigen-presenting cell activation (CD80 and CD86 on BMDC surface). Format: cell-based, C57BL/6 mice. Conditions: 0.5 μg/ml, 24 hours. The text has this:
The cells were stained on ice with fluorophore-labeled antibodies before flow cytometry analysis.

Consider “DCpep6: RFFCLGPLGFTKVD, SEQ ID NO: 6; dendritic cell-targeting peptide discovered by in vivo biopanning (peptide 6, and DCpep6)”, for which, in the experiment with CD11c^+-BMDC, the “targeting ability / cellular uptake of the peptides by bone marrow-derived dendritic cells (FIG. 6)” value was “efficiently targeted; also recorded: remarkably higher efficiency”. Also, the “cellular uptake in cervical lymph node cells, splenic dendritic cells and BMDCs (FIG. 7)” value in experiment [1] is “remarkably higher specific signals”; in experiment [1] (listed as DCpep 6) it was “increased cellular uptake”. The “localization of peptide in cervical lymph node cells (FIG. 8)” value in experiment [2] is “clearly localized in the cytoplasm of CD11c^+ cells”.
Consider “DCpep 3: SPACLDLGLVPWKI, SEQ ID NO: 9; dendritic cell-targeting peptide, Arg replaced by Lys for biotinylation (SPACLDLGLVPWK(Biotin)I)”, for which, in the experiment on CD11c^+-BMDC, the “targeting ability / cellular uptake of the peptides by bone marrow-derived dendritic cells (FIG. 6)” value was “efficiently targeted”. Besides, the “cellular uptake in cervical lymph node cells, splenic dendritic cells and BMDCs (FIG. 7)” value in experiment [1] is given as “increased cellular uptake”.
For “DCpep 4: VDLYPCYTFHSKVV, SEQ ID NO: 10; dendritic cell-targeting peptide, Arg replaced by Lys for biotinylation (VDLYPCYTFHSK(Biotin)VV; not fully specified)” the same measures were “efficiently targeted” and “increased cellular uptake”.

B1: FlaB: flagellin B (FlaB) derived from Vibrio vulnificus, SEQ ID NO: 23 (protein)
chain: MAVNVNTNVAAMTAQRYLNNANSAQQTSMERLSSGFKINSAKDDAAGLQISNRLNVQSRGLDVAVRNANDGISIAQTAEGAMNETTNILQRMRDLSLQSANGSNSKSERVAIQEEVTALNDELNRIAETTSFGGNKLLNGTYGTKAMQIGADNGEAVMLSLKDMRSDNVMMGGVSYQAEEGKDKNWNVAAGDNDLTIALTDSFGNEQEIEINAKAGDDIEELATYINGQTDLVKASVGEGGKLQIFAGNNKVQGEIAFSGSLAGELGLGEGKNVTVDTIDVTTVQGAQESVAIVDAALKYVDSHRAELGAFQNRFNHAISNLDNINENVNASKSRIKDTDFAKETTQLTKTQILSQASSSILAQAKQAPNSALSLLG
modifications: FlaB (F)
Regarding B1, the “tumor suppression (tumor volume, FIGS. 11 and 12)” value in the experiment with TC-1 cells was “did not manifest any suppressive effect”.

B2: EF: recombinant fusion of four copies of E7ΔNLS and FlaB, SEQ ID NO: 24 (protein)
chain: MIDGPAGQAEPDRAHYNIVTFCCKCDSTLRLCVQSTHVDIRTLEDLLMGTLGIVCPICSQKPEFIDGPAGQAEPDRAHYNIVTFCCKCDSTLRLCVQSTHVDIRTLEDLLMGTLGIVCPICSQKPVDIDGPAGQAEPDRAHYNIVTFCCKCDSTLRLCVQSTHVDIRTLEDLLMGTLGIVCPICSQKPVDIDGPAGQAEPDRAHYNIVTFCCKCDSTLRLCVQSTHVDIRTLEDLLMGTLGIVCPICSQKPKLMAVNVNTNVAAMTAQRYLNNANSAQQTSMERLSSGFKINSAKDDAAGLQISNRLNVQSRGLDVAVRNANDGISIAQTAEGAMNETTNILQRMRDLSLQSANGSNSKSERVAIQEEVTALNDELNRIAETTSFGGNKLLNGTYGTKAMQIGADNGEAVMLSLKDMRSDNVMMGGVSYQAEEGKDKNWNVAAGDNDLTIALTDSFGNEQEIEINAKAGDDIEELATYINGQTDLVKASVGEGGKLQIFAGNNKVQGEIAFSGSLAGELGLGEGKNVTVDTIDVTTVQGAQESVAIVDAALKYVDSHRAELGAFQNRFNHAISNLDNINENVNASKSRIKDTDFAKETTQLTKTQILSQASSSILAQAKQAPNSALSLLGLEHHHHHH
modifications: 4xE7deltaNLS::FlaB (EF)
Turning to B2, the “NF-κB activity levels (FIG. 13)” value with TLR5 is given as “increased the activity in dose-dependent manners”. Moreover, the “cellular uptake in bone marrow-derived dendritic cells (FIG. 14)” value in experiment [3] is on record as “scarcely detected”. Also, in experiment [4], the “expression of CD80 and CD86 on BMDC surface (FIG. 20)” value is “no statistical significance”.
